Test results: USRE32992E, “Peptide process for preparation thereof and use thereof” (priority 1978, dated 1989)

Tested on: reticuloendotherial system
Experiment: Blood stream clearance of carbon
Type: in vivo, Mice (DDY male 5-6 W)
Experimental: 1. Carbon suspension. Rotoring drawing ink (170 mg carbon/ml.) was diluted to 1/5 of the original concentration in saline containing 1% gelatin.
2. 0.1% aqueous sodium carbonate solution.
Mice (DDY male 5-6 W) were injected via the tail vein with a dose of 0.01 ml/g body weight of carbon. Blood samples were taken by means of a pointed capillary pippet calibrated to hold a 50 μl and previously washed in heparin. This was plunged into the retrooribital venous sinus at the nasal angle of the eye. The samples were removed at 3 and to 6 min.
The blood was immediately discharged into 3.0 ml. of the sodium carbonate solution. This hemolyszed the blood and allowed the quantitation of carbon. The samples were then read in a spectrophotometer at 660 nm, the log concentration being obtained from a previously determined standard curve. The clearance value K may be determined by plotting log carbon concentration against time according to the following relationship; [formula] in which T1 and T2 represent the time in min when the sample were withdrawn and C1 and C2 represent the concentrations of carbon in the blood at the time T1 and T2, respectively.
The aqueous solution of the test compound as given was administered subcutaneously to mice. Twenty four hours later, blood stream clearance of carbon was measured. K value obtained with treated mice was compared with that of control mice.

| Compound | Ktreated/Kcontrol (dose 10 mg/mouse) | Ktreated/Kcontrol (dose 125 mg/mouse) | Ktreated/Kcontrol (dose 400 mg/mouse) |
| --- | --- | --- | --- |
| c1ccc([C@H]2CN3CCSC3=N2)cc1 [Levamisol] | death |  |  |
| Tuftsin |  | 1.0 | 1.4 |
